Experimental data published in the supplement of paper PMC11451515.

How the values were obtained:
Conditions in all cases: 48 h
NOMO1 [1] = test: cell viability relative to DMSO control; higher = less cytotoxic
In short: (§1)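 Library compounds in DMSO were pin-dosed in an 11-point threefold series (47 μM to 0.79 nM) onto leukemia cells in 1536-well plates (5 μl). Plates held 500 cells/well of NOMO1 or SEM or 1000 cells/well of P12-Ichikawa, each adapted for at least four passages in each medium. Luminescence was read with CellTiter-Glo One after 48 h at 37°C. Viability means the per-plate percentage relative to DMSO wells, using cell-free wells as background.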

P12-Ichikawa [2] = test: as above
In short: as §1

SEM cells [3] = test: as above
In short: as §1

NOMO1 [4] = test: AUC of viability dose-response curve (% viability x log10 dose units); higher = less sensitive
In short: (§2)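 Library compounds in DMSO were applied for 48 h at 37°C at 11 threefold doses (47 μM to 0.79 nM) to medium-adapted leukemia cells in 1536-well plates holding 500 or 1000 cells/well. Luminescence from CellTiter-Glo One was normalised plate by plate against DMSO and cell-free wells. Area under the curve came from trapezoidal integration of a log-logistic fit, after scaling curves that rose above full viability and discarding those that failed quality control. The fit had four parameters and used log10 doses.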

P12-Ichikawa [5] = test: as above
In short: as §2

SEM cells [6] = test: as above
In short: as §2

Cn1cc(-c2ccc3ncc(Cc4ccc5ncccc5c4)n3n2)cn1
cell viability [%]
Conditions	NOMO1 [1]	P12-Ichikawa [2]	SEM cells [3]
HPLM + 10% dialyzed FBS, 0.000781 µM	102	96.8	93.2
HPLM + 10% dialyzed FBS, 0.00234 µM	96.5	105	108
HPLM + 10% dialyzed FBS, 0.00702 µM	99.8	107	103
HPLM + 10% dialyzed FBS, 0.0211 µM	110	107	98.8
HPLM + 10% dialyzed FBS, 0.0632 µM	100	105	101
HPLM + 10% dialyzed FBS, 0.19 µM	102	104	112
HPLM + 10% dialyzed FBS, 0.569 µM	111	113	94.3
HPLM + 10% dialyzed FBS, 1.71 µM	120	107	99.5
HPLM + 10% dialyzed FBS, 5.12 µM	110	105	89.9
HPLM + 10% dialyzed FBS, 15.4 µM	105	107	72.8
HPLM + 10% dialyzed FBS, 46.1 µM	91.7	100	71
RPMI 5 mM glucose + 10% FBS, 0.000781 µM	99.2	102	113
RPMI 5 mM glucose + 10% FBS, 0.00234 µM	108	108	117
RPMI 5 mM glucose + 10% FBS, 0.00702 µM	102	100	122
RPMI 5 mM glucose + 10% FBS, 0.0211 µM	96.4	103	109
RPMI 5 mM glucose + 10% FBS, 0.0632 µM	115	102	131
RPMI 5 mM glucose + 10% FBS, 0.19 µM	110	109	122
RPMI 5 mM glucose + 10% FBS, 0.569 µM	118	111	115
RPMI 5 mM glucose + 10% FBS, 1.71 µM	111	107	107
RPMI 5 mM glucose + 10% FBS, 5.12 µM	102	106	123
RPMI 5 mM glucose + 10% FBS, 15.4 µM	97.6	104	74
RPMI 5 mM glucose + 10% FBS, 46.1 µM	102	102	79.4
RPMI 5 mM glucose + 10% dialyzed FBS, 0.000781 µM	84.9	103	96.2
RPMI 5 mM glucose + 10% dialyzed FBS, 0.00234 µM	110	119	103
RPMI 5 mM glucose + 10% dialyzed FBS, 0.00702 µM	97.4	112	102
RPMI 5 mM glucose + 10% dialyzed FBS, 0.0211 µM	112	109	101
RPMI 5 mM glucose + 10% dialyzed FBS, 0.0632 µM	105	110	112
RPMI 5 mM glucose + 10% dialyzed FBS, 0.19 µM	105	104	109
RPMI 5 mM glucose + 10% dialyzed FBS, 0.569 µM	114	115	111
RPMI 5 mM glucose + 10% dialyzed FBS, 1.71 µM	110	114	106
RPMI 5 mM glucose + 10% dialyzed FBS, 5.12 µM	99	102	98.8
RPMI 5 mM glucose + 10% dialyzed FBS, 15.4 µM	94.4	98.7	71.2
RPMI 5 mM glucose + 10% dialyzed FBS, 46.1 µM	99.7	110	67.3

AUC of viability dose-response curve
Conditions	NOMO1 [4]	P12-Ichikawa [5]	SEM cells [6]
HPLM + 10% dialyzed FBS	468	472	450
RPMI 5 mM glucose + 10% FBS	477	474	452
RPMI 5 mM glucose + 10% dialyzed FBS	472	470	450

Cc1ccc(F)c(NC(=O)Nc2ccc(-c3cccc4[nH]nc(N)c34)cc2)c1
cell viability [%]
Conditions	NOMO1 [1]	P12-Ichikawa [2]	SEM cells [3]
HPLM + 10% dialyzed FBS, 0.000781 µM	91.4	102	91.7
HPLM + 10% dialyzed FBS, 0.00234 µM	111	113	92.7
HPLM + 10% dialyzed FBS, 0.00702 µM	118	107	86.3
HPLM + 10% dialyzed FBS, 0.0211 µM	125	112	76.2
HPLM + 10% dialyzed FBS, 0.0632 µM	115	112	59.5
HPLM + 10% dialyzed FBS, 0.19 µM	111	115	56.7
HPLM + 10% dialyzed FBS, 0.569 µM	110	115	55.1
HPLM + 10% dialyzed FBS, 1.71 µM	110	120	62.9
HPLM + 10% dialyzed FBS, 5.12 µM	117	116	64.9
HPLM + 10% dialyzed FBS, 15.4 µM	93.8	111	64.2
HPLM + 10% dialyzed FBS, 46.1 µM	86.6	81.5	14.4
RPMI 5 mM glucose + 10% FBS, 0.000781 µM	99.6	112	73.4
RPMI 5 mM glucose + 10% FBS, 0.00234 µM	125	113	84.4
RPMI 5 mM glucose + 10% FBS, 0.00702 µM	121	113	80.3
RPMI 5 mM glucose + 10% FBS, 0.0211 µM	108	112	69.9
RPMI 5 mM glucose + 10% FBS, 0.0632 µM	123	118	49.7
RPMI 5 mM glucose + 10% FBS, 0.19 µM	118	126	48.4
RPMI 5 mM glucose + 10% FBS, 0.569 µM	113	108	41.7
RPMI 5 mM glucose + 10% FBS, 1.71 µM	115	126	56
RPMI 5 mM glucose + 10% FBS, 5.12 µM	118	120	48.8
RPMI 5 mM glucose + 10% FBS, 15.4 µM	114	132	29.9
RPMI 5 mM glucose + 10% FBS, 46.1 µM	105	95.3	1.63
RPMI 5 mM glucose + 10% dialyzed FBS, 0.000781 µM	106	105	87.5
RPMI 5 mM glucose + 10% dialyzed FBS, 0.00234 µM	112	122	91.3
RPMI 5 mM glucose + 10% dialyzed FBS, 0.00702 µM	108	123	82.1
RPMI 5 mM glucose + 10% dialyzed FBS, 0.0211 µM	123	122	71.1
RPMI 5 mM glucose + 10% dialyzed FBS, 0.0632 µM	116	127	65.8
RPMI 5 mM glucose + 10% dialyzed FBS, 0.19 µM	105	127	48.7
RPMI 5 mM glucose + 10% dialyzed FBS, 0.569 µM	120	97.2	60.6
RPMI 5 mM glucose + 10% dialyzed FBS, 1.71 µM	117	132	61.7
RPMI 5 mM glucose + 10% dialyzed FBS, 5.12 µM	104	131	57.6
RPMI 5 mM glucose + 10% dialyzed FBS, 15.4 µM	111	116	43.5
RPMI 5 mM glucose + 10% dialyzed FBS, 46.1 µM	87.8	92.6	8.13

AUC of viability dose-response curve
Conditions	NOMO1 [4]	P12-Ichikawa [5]	SEM cells [6]
HPLM + 10% dialyzed FBS	464	470	314
RPMI 5 mM glucose + 10% FBS	472	472	256
RPMI 5 mM glucose + 10% dialyzed FBS	471	470	296

O=C(c1ccc(F)cc1)C1CCN(CCn2c(=O)[nH]c3ccccc3c2=O)CC1
cell viability [%]
Conditions	NOMO1 [1]	P12-Ichikawa [2]	SEM cells [3]
HPLM + 10% dialyzed FBS, 0.000781 µM	122	–	97.6
HPLM + 10% dialyzed FBS, 0.00234 µM	117	–	103
HPLM + 10% dialyzed FBS, 0.00702 µM	111	–	112
HPLM + 10% dialyzed FBS, 0.0211 µM	128	–	101
HPLM + 10% dialyzed FBS, 0.0632 µM	136	–	101
HPLM + 10% dialyzed FBS, 0.19 µM	114	–	98.5
HPLM + 10% dialyzed FBS, 0.569 µM	127	–	119
HPLM + 10% dialyzed FBS, 1.71 µM	120	–	109
HPLM + 10% dialyzed FBS, 5.12 µM	143	–	104
HPLM + 10% dialyzed FBS, 15.4 µM	111	–	95.7
HPLM + 10% dialyzed FBS, 46.1 µM	104	–	93
RPMI 5 mM glucose + 10% FBS, 0.000781 µM	107	–	118
RPMI 5 mM glucose + 10% FBS, 0.00234 µM	118	–	121
RPMI 5 mM glucose + 10% FBS, 0.00702 µM	117	–	126
RPMI 5 mM glucose + 10% FBS, 0.0211 µM	118	–	126
RPMI 5 mM glucose + 10% FBS, 0.0632 µM	105	–	106
RPMI 5 mM glucose + 10% FBS, 0.19 µM	111	–	120
RPMI 5 mM glucose + 10% FBS, 0.569 µM	127	–	120
RPMI 5 mM glucose + 10% FBS, 1.71 µM	106	–	119
RPMI 5 mM glucose + 10% FBS, 5.12 µM	105	–	119
RPMI 5 mM glucose + 10% FBS, 15.4 µM	111	–	125
RPMI 5 mM glucose + 10% FBS, 46.1 µM	98.8	–	116
RPMI 5 mM glucose + 10% dialyzed FBS, 0.000781 µM	–	121	–
RPMI 5 mM glucose + 10% dialyzed FBS, 0.00234 µM	–	125	–
RPMI 5 mM glucose + 10% dialyzed FBS, 0.00702 µM	–	118	–
RPMI 5 mM glucose + 10% dialyzed FBS, 0.0211 µM	–	120	–
RPMI 5 mM glucose + 10% dialyzed FBS, 0.0632 µM	–	118	–
RPMI 5 mM glucose + 10% dialyzed FBS, 0.19 µM	–	121	–
RPMI 5 mM glucose + 10% dialyzed FBS, 0.569 µM	–	140	–
RPMI 5 mM glucose + 10% dialyzed FBS, 1.71 µM	–	110	–
RPMI 5 mM glucose + 10% dialyzed FBS, 5.12 µM	–	116	–
RPMI 5 mM glucose + 10% dialyzed FBS, 15.4 µM	–	112	–
RPMI 5 mM glucose + 10% dialyzed FBS, 46.1 µM	–	102	–

AUC of viability dose-response curve
Conditions	NOMO1 [4]	P12-Ichikawa [5]	SEM cells [6]
HPLM + 10% dialyzed FBS	469	455	469
RPMI 5 mM glucose + 10% FBS	457	448	474
RPMI 5 mM glucose + 10% dialyzed FBS	453	451	466
